Experimental data reported in the supplement of paper PMC10307832.

Key:
Assay in all cases: relative viability (nuclei count vs DMSO), 5 days (fraction); higher = more cells survive
[1] = compound: C1/C(=C\C2=CC=CS2)/C(=O)/C(=C/C3=CC=CS3)/C1 + Cc1nc(NC(=O)N2CCC[C@H]2C(N)=O)sc1-c1ccnc(C(C)(C)C(F)(F)F)c1 [Alpelisib] (partner 2 µM)
Summary of the method: (§1)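 Dosing by pin tool came one day after lung cancer cell lines were seeded in 1536-well plates, using either one drug or a fixed anchor-drug dose plus five library-drug doses (not always all listed) in √10 steps. After 5 days, nuclei were counted on 4× images. Relative viability is treated-well nuclei count divided by vehicle-well nuclei count, and values are medians of duplicate plates.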

Lestaurtinib + Lapatinib = compound: C[C@]12O[C@H](C[C@]1(O)CO)n1c3ccccc3c3c4c(c5c6ccccc6n2c5c31)CNC4=O [Lestaurtinib] + CS(=O)(=O)CCNCc1ccc(-c2ccc3ncnc(Nc4ccc(OCc5cccc(F)c5)c(Cl)c4)c3c2)o1 [Lapatinib] (partner 2 µM)
Summary of the method: as §1

TPCA-1 + Trametinib = compound: C1=CC(=CC=C1C2=CC(=C(S2)NC(=O)N)C(=O)N)F [TPCA-1] + CC(=O)Nc1cccc(-n2c(=O)n(C3CC3)c(=O)c3c(Nc4ccc(I)cc4F)n(C)c(=O)c(C)c32)c1 [Trametinib] (partner 0.02 µM)
Summary of the method: as §1

TPCA-1 + Olaparib = compound: C1=CC(=CC=C1C2=CC(=C(S2)NC(=O)N)C(=O)N)F [TPCA-1] + O=C(c1cc(Cc2n[nH]c(=O)c3ccccc23)ccc1F)N1CCN(C(=O)C2CC2)CC1 [Olaparib] (partner 8 µM)
Summary of the method: as §1

Cell Line	relative viability ([1]; first compound 0.2 µM)	relative viability ([1]; first compound 0.6325 µM)	relative viability ([1]; first compound 2 µM)	relative viability ([1]; first compound 6.325 µM)	relative viability ([1]; first compound 20 µM)	relative viability (Lestaurtinib + Lapatinib; first compound 0.005 µM)	relative viability (Lestaurtinib + Lapatinib; first compound 0.01581 µM)	relative viability (Lestaurtinib + Lapatinib; first compound 0.05 µM)	relative viability (Lestaurtinib + Lapatinib; first compound 0.1581 µM)	relative viability (Lestaurtinib + Lapatinib; first compound 0.5 µM)	relative viability (TPCA-1 + Trametinib; first compound 0.04 µM)	relative viability (TPCA-1 + Trametinib; first compound 0.1265 µM)	relative viability (TPCA-1 + Trametinib; first compound 0.4 µM)	relative viability (TPCA-1 + Trametinib; first compound 1.265 µM)	relative viability (TPCA-1 + Trametinib; first compound 4 µM)	relative viability (TPCA-1 + Olaparib; first compound 0.04 µM)	relative viability (TPCA-1 + Olaparib; first compound 0.1265 µM)	relative viability (TPCA-1 + Olaparib; first compound 0.4 µM)	relative viability (TPCA-1 + Olaparib; first compound 1.265 µM)	relative viability (TPCA-1 + Olaparib; first compound 4 µM)
HCC-44	0.751	0.856	0.813	0.668	0.799	0.985	1.14	0.851	1.14	0.479	1.09	0.983	1.09	0.914	1.02	0.983	0.938	0.95	0.908	0.937
HCC-78	0.349	0.313	0.359	0.321	0.342	0.507	1.03	0.54	0.272	0.289	0.837	0.677	0.722	0.78	0.519	0.917	0.844	0.892	1.01	0.493
HCC-366	0.502	0.393	0.378	0.345	0.421	1.16	1.16	0.79	1	0.0272	–	0.323	0.331	0.312	0.24	–	0.304	0.37	0.348	0.239
HCC-827	0.903	0.924	1.02	0.935	0.98	0.201	0.197	0.212	0.188	0.192	0.545	0.545	0.527	0.596	0.421	0.678	0.62	0.772	0.609	0.367
HOP-62	1.01	0.741	1.09	0.764	0.93	0.889	1.17	1.02	1.08	0.93	0.407	0.373	0.418	0.47	0.366	0.333	0.552	0.317	0.338	0.14
IA-LM	0.728	0.746	0.651	0.679	0.768	1	1.06	0.91	0.905	0.396	–	–	–	–	–	0.818	0.834	0.846	0.765	0.72
LC-2-ad	0.961	0.956	0.942	0.702	0.824	1.17	1.07	0.62	0.266	0.19	0.946	0.941	0.958	0.968	0.765	0.689	0.783	0.688	0.745	0.578
LCLC-97TM1	0.255	0.225	0.272	0.212	0.248	1.18	1.18	0.767	0.196	0.163	0.208	0.152	0.163	0.205	0.204	0.301	0.237	0.374	0.346	0.216
LCLC-103H	1.05	0.926	1.02	0.73	0.956	–	–	–	–	–	0.689	0.671	0.689	0.725	0.684	0.747	0.788	0.782	0.868	0.779
LK-2	0.94	1.02	0.856	1.13	0.813	0.89	1.07	0.64	0.496	0.283	0.76	0.535	0.873	0.659	0.504	0.68	0.371	0.516	0.741	0.335
LOU-NH91	0.776	0.746	0.769	0.671	0.729	0.768	0.721	0.638	0.562	0.404	0.8	0.735	0.835	0.773	0.714	0.885	0.846	0.922	0.94	0.773
NCI-H441	0.819	0.832	0.719	0.578	0.737	–	–	–	–	–	0.402	0.405	0.422	0.459	0.266	0.461	0.454	0.53	0.443	0.436
NCI-H522	–	–	–	–	–	–	–	–	–	–	0.872	0.737	0.901	0.766	0.6	0.834	0.504	0.642	0.643	0.556
NCI-H1299	1.04	1.08	1.03	0.948	1.04	0.972	1.01	0.893	0.862	0.479	–	–	–	–	–	0.947	0.963	0.941	0.932	0.939
NCI-H1563	0.933	0.912	0.881	0.93	1.02	1.1	0.947	1.06	1.05	0.776	–	–	–	–	–	–	–	–	–	–
NCI-H1648	–	–	–	–	–	–	–	–	–	–	0.505	0.473	0.378	0.169	0.582	0.799	0.81	0.626	1.1	0.933
NCI-H1650	–	–	–	–	–	0.987	0.95	0.817	0.512	0.157	0.662	0.545	0.602	0.565	0.655	0.893	0.826	0.758	0.822	0.863
NCI-H1703	0.41	0.453	0.334	0.287	0.318	1.07	1.09	0.597	0.278	0.123	–	–	–	–	–	0.443	0.39	0.433	0.398	0.424
NCI-H2342	–	–	–	–	–	–	–	–	–	–	0.792	0.685	0.79	0.829	0.944	0.487	0.351	0.44	0.423	0.325
SW 900	–	–	–	–	–	–	–	–	–	–	–	–	0.775	0.909	0.764	–	–	0.894	0.935	0.644
